Where a SMILES comes first, the peptide text is derived from it. Bridges are numbered along the chain shown (N, C = ends). [ ]: non-standard residue; d: D form. The star is where a group is joined. hPhe(3,5-F2-4-CF3) = N[C@@H](CCc1cc(F)c(C(F)(F)F)c(F)c1)C(=O)O; hPhe(3-Cl-4-CF3) = N[C@@H](CCc1ccc(C(F)(F)F)c(Cl)c1)C(=O)O; NPrPhe(4-CF3) = CCCN[C@@H](Cc1ccc(C(F)(F)F)cc1)C(=O)O; Abu(4,4,4-F3) = N[C@@H](CC(F)(F)F)C(=O)O; NMeGly(cPent) = CN[C@H](C(=O)O)C1CCCC1; Hyp = O=C(O)[C@@H]1C[C@@H](O)CN1; Gly(cBu) = N[C@H](C(=O)O)C1CCC1; NMeD = CN[C@@H](CC(=O)O)C(=O)O; Ac4c(3-oxa) = NC1(C(=O)O)COC1; NMeL = CN[C@@H](CC(C)C)C(=O)O; Morpholide = C1CN(*)CCO1; Ac5c = NC1(C(=O)O)CCCC1; Ethyl(2,2-F2) = FC(F)C*; NEtG = CCNCC(=O)O; Sar = CNCC(=O)O
Key:
[1] = target: GDP-bound NRAS wild-type protein (Homo sapiens, UniProt P01111); assay: Binding to NRAS by surface plasmon resonance (SPR), KD and KD ratio to KRAS
In short: (§1)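 GDP-bound biotin-Avi RAS captured at ~100–300 RU, 30°C, pH 7.4 HBS containing 10 µM GDP, 10 mM MgCl2, 1 mM DTT, 0.01% Tween 20 and 4% DMSO. KD by 1:1 fitting.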

HRAS wild-type protein = HRAS wild-type protein (Homo sapiens, UniProt P01112); assay: Binding to HRAS by surface plasmon resonance (SPR), KD and KD ratio to KRAS
In short: as §1

[2] = test system: human lung cancer strain NCI-H441; assay type: cell-based
In short: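 Readout: […] after the ATP-based reagent. Compound: serial dilutions in dimethyl sulfoxide.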

[3] = ratio of KD for GDP-bound NRAS wild-type protein to KD for KRAS
[4] = ratio of KD for HRAS wild-type protein to KD for KRAS

GDP-bound NRAS wild-type protein, sequence (P01111 whole entry): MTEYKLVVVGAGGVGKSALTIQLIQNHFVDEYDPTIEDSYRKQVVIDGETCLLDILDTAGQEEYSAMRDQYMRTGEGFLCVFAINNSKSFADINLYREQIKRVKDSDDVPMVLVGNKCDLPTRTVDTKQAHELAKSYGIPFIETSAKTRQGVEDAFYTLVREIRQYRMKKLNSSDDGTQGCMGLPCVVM
HRAS wild-type protein, sequence (P01112 whole entry): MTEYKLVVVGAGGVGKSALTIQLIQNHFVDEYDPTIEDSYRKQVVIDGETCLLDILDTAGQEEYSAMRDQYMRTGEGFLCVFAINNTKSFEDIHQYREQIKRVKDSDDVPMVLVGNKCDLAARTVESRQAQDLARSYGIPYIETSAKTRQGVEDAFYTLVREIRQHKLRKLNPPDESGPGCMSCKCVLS

IC50 [2]	Compound	NRAS /KRAS [1, 3]	HRAS /KRAS (HRAS wild-type protein; [4])	NRAS /KRAS ([1]; ratio of the KD value with respect to GDP-bound NRAS wild-type protein to the KD value with respect to KRAS)	HRAS /KRAS (HRAS wild-type protein; ratio of the KD value with respect to HRAS wild-type protein to the KD value with respect to KRAS)
31 nM	CCCN1C(=O)CN(C)C(=O)CN(CC)C(=O)[C@H](CC(F)(F)F)NC(=O)[C@H](CC(C)C)N(C)C(=O)C[C@@H](C(=O)N2CCOCC2)N(C)C(=O)[C@H](C2CCCC2)N(C)C(=O)C2(CCCC2)NC(=O)[C@@H]2CCCN2C(=O)[C@H](CCc2ccc(C(F)(F)F)c(Cl)c2)NC(=O)CN(C)C(=O)[C@@H]1Cc1ccc(C(F)(F)F)cc1 [PP0291] ([NMeL][Abu(4,4,4-F3)][NEtG][Sar][NPrPhe(4-CF3)][Sar][hPhe(3-Cl-4-CF3)]P[Ac5c][NMeGly(cPent)][NMeD]-Morpholide; lactam N-11)	B (a compound having 3 or more and less than 10 is denoted as B)	B (a compound having 3 or more and less than 10 is denoted as B)	–	–
790 nM	CCO[C@@H]1C[C@H]2C(=O)N[C@]3(C)CCCCCC[C@@H](C(=O)N[C@@H]([C@@H](C)CC)C(=O)N(C)CC(=O)N(C)[C@H]4CCCCN(C4=O)[C@@H](Cc4ccc(C(F)(F)F)cc4)C(=O)N(C)CC(=O)N[C@@H](CCc4cc(F)c(C(F)(F)F)c(F)c4)C(=O)N2C1)N(C)C(=O)C[C@@H](C(=O)N1CCOCC1)N(C)C(=O)[C@H](C1CCCC1)N(C)C3=O [PP0992]	B (a compound having 3 or more and less than 10 is denoted as B)	B (a compound having 3 or more and less than 10 is denoted as B)	–	–
11.5 nM	CCO[C@@H]1C[C@H]2C(=O)NC3(CC(C)(C)C3)C(=O)N(C)[C@@H](C3CCCC3)C(=O)N(C)[C@H](C(=O)N3CCCC3)CC(=O)N(C)[C@H]3CCCC/C=C/c4ccc(cc4)C[C@@H](C(=O)N(C)CC(=O)N[C@@H](CCc4ccc(Cl)c(Cl)c4)C(=O)N2C1)N1CC/C=C\C[C@@H](C1=O)N(C)C(=O)CN(C)C(=O)[C@H]([C@@H](C)CC)NC3=O [PP2593]	A (a compound having 10 or more and less than 20 is denoted as A)	A (a compound having 10 or more and less than 20 is denoted as A)	–	–
1.8 nM	CCCN1C(=O)CN(C)C(=O)CN(C)C(=O)[C@H]([C@@H](C)CC)NC(=O)[C@H](CC(C)C)N(C)C(=O)C[C@@H](C(=O)N2CCOCC2)N(C)C(=O)[C@H](C2CCCC2)N(C)C(=O)C2(CCCC2)NC(=O)[C@@H]2C[C@@H](OCC(F)F)CN2C(=O)[C@H](CCc2ccc(C(F)(F)F)c(Cl)c2)NC(=O)CN(C)C(=O)[C@@H]1Cc1ccc(C(F)(F)F)cc1 [PP0246] ([NMeL]I[Sar][Sar][NPrPhe(4-CF3)][Sar][hPhe(3-Cl-4-CF3)][Hyp](Ethyl(2,2-F2))[Ac5c][NMeGly(cPent)][NMeD]-Morpholide; lactam N-11)	B (a compound having 3 or more and less than 10 is denoted as B)	C (A compound having a KD ratio of 0.1 or more and less than 3 is denoted as C)	–	–
123 nM	CCCN1C(=O)CN(C)C(=O)CN(C)C(=O)[C@H]([C@@H](C)CC)NC(=O)[C@H](CC(C)C)N(C)C(=O)C[C@@H](C(=O)N2CCOCC2)N(C)C(=O)[C@H](C2CCCC2)N(C)C(=O)C2(COC2)NC(=O)[C@@H]2CCCN2C(=O)[C@H](CCc2cc(F)c(C(F)(F)F)c(F)c2)NC(=O)CN(C)C(=O)[C@@H]1Cc1ccc(C(F)(F)F)cc1 [PP0765] ([NMeL]I[Sar][Sar][NPrPhe(4-CF3)][Sar][hPhe(3,5-F2-4-CF3)]P[Ac4c(3-oxa)][NMeGly(cPent)][NMeD]-Morpholide; lactam N-11)	B (a compound having 3 or more and less than 10 is denoted as B)	C (A compound having a KD ratio of 0.1 or more and less than 3 is denoted as C)	–	–
74 nM	CCCN1C(=O)CN(C)C(=O)CNC(=O)[C@H]([C@@H](C)CC)NC(=O)[C@H](CC(C)C)N(C)C(=O)C[C@@H](C(=O)N2CCOCC2)N(C)C(=O)[C@H](C2CCCC2)N(C)C(=O)C2(CCCC2)NC(=O)[C@@H]2CCCN2C(=O)[C@H](CCc2ccc(C(F)(F)F)c(Cl)c2)NC(=O)CN(CC)C(=O)[C@@H]1Cc1ccc(C(F)(F)F)cc1 [PP1969] ([NMeL]IG[Sar][NPrPhe(4-CF3)][NEtG][hPhe(3-Cl-4-CF3)]P[Ac5c][NMeGly(cPent)][NMeD]-Morpholide; lactam N-11)	–	–	B (a compound having 3 or more and less than 10 is denoted as B)	C (A compound having a KD ratio of 0.1 or more and less than 3 is denoted as C)
36.3 nM	CCCN1C(=O)CN(C)C(=O)CN(CC)C(=O)[C@H](C2CCC2)NC(=O)[C@H](CC(C)C)N(C)C(=O)C[C@@H](C(=O)N2CCOCC2)N(C)C(=O)[C@H](C2CCCC2)N(C)C(=O)C2(CCCC2)NC(=O)[C@@H]2CCCN2C(=O)[C@H](CCc2ccc(C(F)(F)F)c(Cl)c2)NC(=O)CN(C)C(=O)[C@@H]1Cc1ccc(C(F)(F)F)cc1 [PP0292] ([NMeL][Gly(cBu)][NEtG][Sar][NPrPhe(4-CF3)][Sar][hPhe(3-Cl-4-CF3)]P[Ac5c][NMeGly(cPent)][NMeD]-Morpholide; lactam N-11)	B (a compound having 3 or more and less than 10 is denoted as B)	C (A compound having a KD ratio of 0.1 or more and less than 3 is denoted as C)	–	–
